Assay results published in patent US20260085034A1, “N-(BENZHYDRYL)CYCLOALKYLCARBOXAMIDE DERIVATIVES AS INHIBITORS OF GLYCOGEN SYNTHASE 1 (GYS1) AND METHODS OF USE THEREOF” (Maze Therapeutics, Inc., priority 2022, published 2026).

Legend:
[1] = target: T1, recombinant hGYS1/GN1 protein (Homo sapiens, UniProt P13807); experiment: GYS1 coupled enzyme assay (PK/LDH); assay type: biochemical; settings: geometric mean of at least 2 assay runs; NADH absorbance at 340 nm
T1 sequence (P13807 1-737): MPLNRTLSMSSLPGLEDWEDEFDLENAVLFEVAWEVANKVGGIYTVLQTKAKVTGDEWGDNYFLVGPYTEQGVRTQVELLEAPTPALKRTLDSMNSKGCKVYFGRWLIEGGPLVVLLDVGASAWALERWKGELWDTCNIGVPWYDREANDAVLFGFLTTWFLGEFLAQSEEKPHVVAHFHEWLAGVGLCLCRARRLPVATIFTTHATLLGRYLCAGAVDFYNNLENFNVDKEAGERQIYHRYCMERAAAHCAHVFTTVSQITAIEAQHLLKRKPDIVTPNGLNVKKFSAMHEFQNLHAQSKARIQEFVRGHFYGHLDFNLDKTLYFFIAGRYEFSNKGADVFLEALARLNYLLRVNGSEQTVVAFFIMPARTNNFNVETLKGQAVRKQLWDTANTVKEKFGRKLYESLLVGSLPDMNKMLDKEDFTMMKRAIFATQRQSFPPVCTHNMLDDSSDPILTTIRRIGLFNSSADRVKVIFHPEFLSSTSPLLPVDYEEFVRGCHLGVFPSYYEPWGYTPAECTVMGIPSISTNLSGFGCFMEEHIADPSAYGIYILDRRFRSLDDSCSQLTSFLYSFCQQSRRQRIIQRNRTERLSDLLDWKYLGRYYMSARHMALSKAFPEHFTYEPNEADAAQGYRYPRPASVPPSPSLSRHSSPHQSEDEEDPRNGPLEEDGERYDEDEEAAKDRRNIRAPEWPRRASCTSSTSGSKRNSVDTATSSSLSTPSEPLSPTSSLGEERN
T1 sequence (P46976 1-350 partner): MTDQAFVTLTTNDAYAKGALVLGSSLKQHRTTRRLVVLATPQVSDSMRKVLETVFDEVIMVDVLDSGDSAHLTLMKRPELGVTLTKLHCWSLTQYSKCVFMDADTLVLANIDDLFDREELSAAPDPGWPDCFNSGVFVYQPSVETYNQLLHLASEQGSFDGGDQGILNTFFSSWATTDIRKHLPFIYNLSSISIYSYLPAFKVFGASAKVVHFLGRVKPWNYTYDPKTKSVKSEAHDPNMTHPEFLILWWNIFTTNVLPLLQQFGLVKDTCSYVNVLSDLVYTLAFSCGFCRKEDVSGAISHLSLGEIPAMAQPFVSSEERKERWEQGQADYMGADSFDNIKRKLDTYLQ
Source text: (§1) The GYS1 coupled enzyme assay is a kinetic biochemical assay that indirectly quantifies the rate of glycogen synthesis by coupling the conversion of GYS1 substrate UDP-glucose into UDP with downstream enzymatic reactions. UDP is released from UDP-glucose as glucose monomers are linked into the growing glycogen strand by GYS1. The coupled assay then proceeds with pyruvate kinase utilizing UDP and phospho(enol)pyruvate (PEP) to form pyruvate. Lactate dehydrogenase then converts pyruvate and NADH into lactate and NAD+. Oxidation of NADH to NAD+ can be measured continuously with a plate reader by quantifying the decrease in NADH absorbance at 340 nm over time.
Compounds that inhibit the hGYS1 enzyme and, subsequently, the downstream conversion of NADH to NAD+, were tested using assay ready plates (black, clear bottom 384 well plates) in a final DMSO reaction volume of 2.5% DMSO. The Assay Buffer contained 50 mM Tris pH 7.5, 2 mM MgCl2, and 100 mM KCl. Fresh stocks of BSA at a final concentration of 0.02% and TCEP at 1 mM were added before splitting buffer into hGYS1 buffer and substrate buffer. To the hGYS1 buffer, rabbit liver glycogen was added at a final concentration of 0.2% glycogen. Glucose-6-Phosphate was added at 1 mM, recombinant hGYS1/GN1 protein was added at 50 nM to the substrate buffer, phosphoenolpyruvate (PEP) was added at 2 mM, UDP-Glucose was added at 0.8 mM, NADH) was added at 0.6 mM, and Pyruvate Kinase/Lactate Dehydrogenase was added at 20 units/mL. The reaction was initiated by mixing hGYS1 buffer and substrate buffer at a 1:1 ratio. Both buffers were plated using a liquid dispensing device with hGYS1 buffer plated first followed by the substrate buffer. Plates were spun briefly to eliminate air bubbles and are immediately read in continuous mode at an absorbance of 340 nm, for 10 time points in one-minute increments, for a total of 10 minutes. The slope from these 10 time points was normalized to the positive and negative control wells. The duplicate % inhibition values are then averaged and fit to a Hill equation for dose response according to the Levenberg-Marquardt algorithm with the Hill equation maximum set to 100 and the minimum set to 0.
The results are shown in Table 3 below, which reports the IC50 of each compound. Unless otherwise specified, IC50 values are reported as the geometric mean of at least 2 assay runs on separate days. Each run represents the average of a technical replicate, where each compound was assayed twice in the same plate. As shown in the table below, the compounds of the present invention are potent inhibitors of human GYS1.

[2] = target: T2, recombinant hGYS2/GN1 protein (Homo sapiens, UniProt P54840); experiment: GYS2 coupled enzyme assay (PK/LDH); assay type: biochemical; settings: geometric mean of at least 2 assay runs; NADH absorbance at 340 nm
T2 sequence (P54840 1-703): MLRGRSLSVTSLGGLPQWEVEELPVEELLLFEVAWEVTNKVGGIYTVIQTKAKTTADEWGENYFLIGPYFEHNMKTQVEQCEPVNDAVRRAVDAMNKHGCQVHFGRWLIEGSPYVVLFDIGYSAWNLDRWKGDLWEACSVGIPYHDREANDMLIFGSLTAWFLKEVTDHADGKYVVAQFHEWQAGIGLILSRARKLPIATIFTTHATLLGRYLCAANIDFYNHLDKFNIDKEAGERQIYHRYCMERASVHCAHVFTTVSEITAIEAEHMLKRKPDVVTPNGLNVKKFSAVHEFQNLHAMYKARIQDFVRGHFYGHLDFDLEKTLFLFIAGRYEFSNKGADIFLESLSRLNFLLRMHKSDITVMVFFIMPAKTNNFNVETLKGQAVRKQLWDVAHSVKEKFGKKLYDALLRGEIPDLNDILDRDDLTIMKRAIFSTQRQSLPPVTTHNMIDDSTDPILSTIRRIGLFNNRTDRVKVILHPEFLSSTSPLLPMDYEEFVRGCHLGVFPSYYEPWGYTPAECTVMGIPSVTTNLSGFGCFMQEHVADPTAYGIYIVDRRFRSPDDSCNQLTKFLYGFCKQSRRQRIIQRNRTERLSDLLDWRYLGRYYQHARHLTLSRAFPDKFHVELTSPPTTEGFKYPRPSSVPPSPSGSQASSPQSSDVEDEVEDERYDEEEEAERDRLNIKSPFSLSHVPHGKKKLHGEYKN
T2 sequence (P46976 1-350 partner): T1 sequence (P46976 1-350 partner)
Source text: as §1, with “GYS2” for “GYS1”, “GYS2.” for “GYS1.”
Compounds that inhibit the hGYS2 enzyme and, subsequently, the downstream conversion of NADH to NAD+, were tested using assay ready plates (black, clear bottom 384 well plates) in a final DMSO reaction volume of 2.5% DMSO. The Assay Buffer contained 50 mM Tris pH 7.5, 2 mM MgCl2, and 100 mM KCl. Fresh stocks of BSA at a final concentration of 0.02% and TCEP 1 mM were added before splitting buffer into hGYS2 buffer and substrate buffer. To the hGYS2 buffer, rabbit liver glycogen was added at a final concentration of 0.2% glycogen. Glucose-6-Phosphate was added at 2 mM, recombinant hGYS2/GN1 protein was added at 200 nM to the substrate buffer, phosphoenolpyruvate (PEP) was added at 2 mM, UDP-Glucose was added at 2 mM, NADH was added at 0.6 mM, and Pyruvate Kinase/Lactate Dehydrogenase was added at 20 units/mL. The reaction was initiated by mixing hGYS2 buffer and substrate buffer at a 1:1 ratio. Both buffers were plated using a liquid dispensing device with hGYS2 buffer plated first followed by the substrate buffer. Plates were spun briefly to eliminate air bubbles and are immediately read in continuous mode at an absorbance of 340 nm, for 10 time points in one-minute increments, for a total of 10 minutes. The slope from these 10 time points was normalized to the positive and negative control wells. The duplicate % inhibition values are then averaged and fit to a Hill equation for dose response according to the Levenberg-Marquardt algorithm with the Hill equation maximum set to 100 and the minimum set to 0.
The results are shown in Table 5 below, which reports the IC50 of each compound. Unless otherwise specified, IC50 values are reported as the geometric mean of at least 2 assay runs on separate days. As shown in the table below, the compounds of the present invention are not potent inhibitors of human GYS2. […] Each run represents the average of a technical replicate, where each compound was assayed twice in the same plate.

## COCCN1CCC(C(=O)Nc2ccccc2[C@H](NC(=O)[C@H]2C[C@@H]2F)c2ccc(C(C)C)cc2)CC1 [compound 13, N-(2-((R)-((1R,2S)-2-fluorocyclopropane-1-carboxamido)(4-isopropylphenyl)methyl)phenyl)-1-(2-methoxyethyl)piperidine-4-carboxamide]
[1]
  IC50: 1.04 µM
[2]
  IC50: > 100 µM

## CC(C)c1ccc([C@@H](NC(=O)[C@H]2C[C@@H]2F)c2ccccc2NC(=O)C2CCN(CC3CC3)CC2)cc1 [compound 14, 1-(cyclopropylmethyl)-N-(2-((R)-((1R,2S)-2-fluorocyclopropane-1-carboxamido)(4-isopropylphenyl)methyl)phenyl)piperidine-4-carboxamide]
[1]
  IC50: 0.891 µM
[2]
  IC50: > 100 µM

## CC(C)c1ccc([C@@H](NC(=O)C2CC2)c2ccccc2N/C(N)=N/C#N)cc1 [compound 19, (R,E)-N-((2-(2-cyanoguanidino)phenyl)(4-isopropylphenyl)methyl)cyclopropanecarboxamide]
[1]
  IC50: 0.304 µM
[2]
  IC50: > 100 µM

## CC(C)c1ccc([C@@H](NC(=O)C2CC2)c2ccccc2NC(=O)C2CN(C)C2)cc1 [compound 26, (R)-N-(2-(cyclopropanecarboxamido(4-isopropylphenyl)methyl)phenyl)-1-methylazetidine-3-carboxamide]
[1]
  IC50: 1.19 µM
[2]
  IC50: > 100 µM

## CC(C)c1ccc([C@@H](NC(=O)[C@@H]2C[C@H]2F)c2ccccc2)cc1 [compound 27, (1S,2R)-2-fluoro-N-((S)-(4-isopropylphenyl)(phenyl)methyl)cyclopropane-1-carboxamide]
[1]
  IC50: 0.598 µM
[2]
  IC50: > 100 µM

## CC(C)c1ccc([C@@H](NC(=O)[C@H]2C[C@@H]2F)c2ccccc2)cc1 [compound 36, (1R,2S)-2-fluoro-N-((S)-(4-isopropylphenyl)(phenyl)methyl)cyclopropane-1-carboxamide]
[1]
  IC50: 0.418 µM
[2]
  IC50: > 100 µM

## CC(=O)N1CC(C(=O)Nc2ccccc2[C@H](NC(=O)C2CC2)c2ccc(C(C)C)cc2)C1 [compound 37, (R)-1-acetyl-N-(2-(cyclopropanecarboxamido(4-isopropylphenyl)methyl)phenyl)azetidine-3-carboxamide]
[1]
  IC50: 1.06 µM
[2]
  IC50: > 100 µM

## CC(=O)Nc1ccccc1[C@H](NC(=O)C1CC1)c1ccc(C(C)C)cn1 [compound 46, (S)-N-((2-acetamidophenyl)(5-isopropylpyridin-2-yl)methyl)cyclopropanecarboxamide]
[1]
  IC50: 1.42 µM
[2]
  IC50: > 100 µM

## CC(C)c1ccc([C@@H](NC(=O)C2CC2)c2ccccc2NC(=O)C2CNC2)cc1 [compound 48, (R)-N-(2-(cyclopropanecarboxamido(4-isopropylphenyl)methyl)phenyl)azetidine-3-carboxamide]
[1]
  IC50: 1.06 µM
[2]
  IC50: > 100 µM

## CNC(=O)Nc1ccccc1[C@H](NC(=O)C1CC1)c1ccc(C(C)C)cc1 [compound 53, (R)-N-((4-isopropylphenyl)(2-(3-methylureido)phenyl)methyl)cyclopropanecarboxamide]
[1]
  IC50: 1.23 µM
[2]
  IC50: > 100 µM

## CC(C)c1ccc([C@@H](NC(=O)C2CC2)c2ccccc2NC(N)=O)cc1 [compound 54, (R)-N-((4-isopropylphenyl)(2-ureidophenyl)methyl)cyclopropanecarboxamide]
[1]
  IC50: 0.346 µM
[2]
  IC50: > 100 µM

## CC(C)c1ccc([C@@H](NC(=O)C2CC2)c2ccn[nH]2)cc1 [compound 56, (R)-N-((4-isopropylphenyl)(1H-pyrazol-5-yl)methyl)cyclopropanecarboxamide]
[1]
  IC50: 0.372 µM
[2]
  IC50: > 100 µM

## CC(C)c1ccc([C@@H](NC(=O)C2CC2)c2ccccc2NS(C)(=O)=O)cc1 [compound 57, (R)-N-((4-isopropylphenyl)(2-(methylsulfonamido)phenyl)methyl)cyclopropanecarboxamide]
[1]
  IC50: 2.17 µM
[2]
  IC50: > 100 µM

## CCC(=O)Nc1ccccc1[C@H](NC(=O)C1CC1)c1ccc(C(C)C)cc1 [compound 59, (R)-N-((4-isopropylphenyl)(2-propionamidophenyl)methyl)cyclopropanecarboxamide]
[1]
  IC50: 0.441 µM
[2]
  IC50: > 100 µM
